Assay results: ChEMBL document CHEMBL3259548, “Design, synthesis and biological evaluation of novel isoniazid derivatives with potent antitubercular activity” (Eur J Med Chem, 2014)
Values after ≈ are worked out from the molar mass of the structure shown.

Key:
Assay type in all cases: functional
[1] = tested on: Mycobacterium tuberculosis; assay: Antitubercular activity against Mycobacterium tuberculosis H37Rv clinical isolate harboring katG S315T mutant by BACTEC 960 assay
[2] = tested on: Mycobacterium tuberculosis; assay: Antitubercular activity against katG-deficient isoniazid-resistant Mycobacterium tuberculosis H37Rv ATCC 27294 by BACTEC 960 assay
[3] = tested on: Mycobacterium tuberculosis; assay: Ratio of isoniazid MIC to compound MIC for Mycobacterium tuberculosis H37Rv clinical isolate harboring katG S315T mutant by BACTEC 960 assay

CC(=O)NNC(=O)c1ccncc1
MIC [1]: >55.8 µM
MIC [2]: > 55.8 µM

O=Cc1cccc(/C=N/NC(=O)c2ccncc2)c1
MIC [1]: >39.5 µM
MIC [2]: > 39.5 µM

O=Cc1ccc(/C=N/NC(=O)c2ccncc2)cc1
MIC [1]: >39.5 µM
MIC [2]: > 39.5 µM

O=C(N/N=C/c1cccc(CO)c1)c1ccncc1
MIC [1]: 39.2 µM (≈ 10 µg/mL)
MIC [2]: > 39.2 µM

O=C(N/N=C/c1ccc(CO)cc1)c1ccncc1
MIC [1]: 39.2 µM (≈ 10 µg/mL)
MIC [2]: > 39.2 µM

O=C(NN=C1CCCC1)c1ccncc1
MIC [1]: 39.4 µM (≈ 8.01 µg/mL)
MIC [2]: > 49.2 µM

O=C(NN=C1CCC(c2ccccc2)CC1)c1ccncc1 (stereo not given)
MIC [1]: 34.1 µM (≈ 10 µg/mL)
MIC [2]: > 34.1 µM

COC(=O)c1ccc(/C=N/NC(=O)c2ccncc2)cc1
MIC [1]: 21.2 µM (≈ 6.01 µg/mL)

O=C(N/N=C/c1ccc(Oc2ccccc2)cc1)c1ccncc1
MIC [1]: 18.9 µM (≈ 6 µg/mL)

CCCCCCCCCC(=O)NNC(=O)c1ccncc1
MIC [1]: 6.9 µM (≈ 2.01 µg/mL)
MIC [2]: > 34.3 µM
Ratio [3]: 6

CCCCCC(C)C(=O)NNC(=O)c1ccncc1 (stereo not given)
MIC [1]: >38 µM

O=C(NNC1CCC(c2ccccc2)CC1)c1ccncc1 (stereo not given)
MIC [1]: >33.9 µM
MIC [2]: > 33.9 µM

NNC(=O)c1ccnc(NN)c1
MIC [1]: 47.9 µM (≈ 8.01 µg/mL)

NNC(=O)c1ccncc1 [ISONIAZID]
MIC [1]: 43.8 µM (≈ 6.01 µg/mL)
MIC [2]: > 72.9 µM
